Data reported in PubChem BioAssay (NCI).
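Briefly, cells in 96-well plates were exposed to five compound concentrations for 48 h, and endpoints were estimated by linear interpolation. TGI marks complete inhibition of growth.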

Tests used:
Assay in all cases: DTP human tumour cell line panel, 48 h
[1] = test system: EKVX NSCLC
[2] = test system: SNB-75 CNS
[3] = test system: IGROV1 ovarian
[4] = test system: COLO 205 colon
[5] = test system: UACC-62 melanoma
[6] = test system: SK-MEL-2 melanoma
[7] = test system: OVCAR-8 ovarian
[8] = test system: SNB-19 CNS
[9] = test system: NCI-H226 lung

SMILES	TGI [1] [µM]	TGI [2] [µM]	TGI [3] [µM]	TGI [4] [µM]	TGI [5] [µM]	TGI [6] [µM]	TGI [7] [µM]	TGI [8] [µM]	TGI [9] [µM]
O=C1C(=O)C(Br)(Br)C(Br)=C1Br	54.8	27.7	> 100	32.9	33.6	33.7	36.6	> 100	
CCN(CC)C(=O)COc1ccc(Br)cc1Br	58	> 100		> 100	> 100	> 100		> 100	> 100
O=C(COc1ccccc1)NS(=O)(=O)c1ccccc1	> 100	> 100	> 100	> 100	> 100	> 100	> 100	> 100	> 100
O=c1cnn2c(n1)sc1ccc3ccccc3c12	> 100	> 100	> 100	> 100	> 100	> 100	> 100	> 100	> 100
Cc1ccccc1C(C#N)C(=O)C(=O)Nc1cccc(Cl)c1 (stereo unspecified)	> 100	> 100	> 100	> 100	> 100	> 100	> 100	> 100	> 100
Nc1c(-c2ccc(Cl)cc2Cl)[n+]([O-])c2ccccc2[n+]1[O-]	> 100	> 100	> 100	> 100	> 100	> 100	> 100	> 100	> 100
O=C(Nc1nc2ncn(CC(COc3ccccc3)OC(=O)c3ccccc3)c2c(=O)[nH]1)c1ccccc1 (stereo unspecified)	> 100	> 100	> 100		> 100	> 100	> 100	> 100	> 100
CC1OC(OCC2COC(O)(Oc3c(-c4ccc(O)c(O)c4)oc4cc(O)cc(O)c4c3=O)C(O)C2O)C(O)C(O)C1O (stereo unspecified)	> 100	> 100	> 100	> 100	> 100		> 100	> 100	> 100
Cc1ccc(C)c(NC(=O)CC/C(=N\NC(=O)C(N)=O)C(C)C(=O)c2ccc(O)cc2)c1 (stereo unspecified)	> 100		> 100	> 100	> 100	> 100	> 100	> 100	> 100
Cc1cc(O)cc2c1O[C@@]1(C)CCC3[C@@]4(C)CC[C@H](O)C(C)(C)C4CC[C@@]3(C)[C@H]1C2 (stereo partly specified)	31.4	11.8	30.2	33.4	21.9		27		24.9
CCOC(=O)/C(=C/c1ccc(C#N)cc1)N(CC)CC	> 100	> 100	> 100	> 100	> 100	> 100	> 100		> 100
COc1ccc2nc3ccccc3c(NCCCCCCN(C)CCCl)c2c1	3.45	2.73		1.52	1.61	1.81	1.81	2.77	1.55
CN(C)CC1(C)CC/C(=C\c2ccccc2)C1=O (stereo unspecified)		> 100	> 100	> 100	> 100	> 100	> 100	> 100	> 100
Cc1cc(Cl)ccc1N=C1NC(=O)C(CC(=O)Nc2ccc(Cl)cc2Cl)S1 (stereo unspecified)	> 100	> 100	> 100	> 100	> 100	> 100	> 100	> 100	
CN(C)CCNC(=O)c1cccc2[nH]c(-c3ccccc3)nc12	53.5	75.3	50.9	24.7	32.6	32.5		> 100	39.5
CC12CCC[C@@](C)(C(=O)OC3OC(CO)C(O)C(O)C3O)[C@H]1CCC13CC4CC(OC4(CO)[C@H]1O)[C@@H]23 (stereo partly specified)	> 100	> 100	> 100		> 100	> 100	> 100	> 100	> 100
O=C(NO)C12C3C4C1C1C2C3C41C(=O)NO (stereo unspecified)	> 100	> 100		> 100	> 100	> 100	> 100	> 100	> 100
OCC12C3C4C1C1C2C3C41CO (stereo unspecified)	> 100		> 100	> 100	> 100		> 100	> 100	> 100
Nc1nc2nc[nH]c2c(=O)[nH]1	> 100	> 100	> 100	> 100	> 100	> 100	> 100		> 100
CC(C)=CC(=O)Cc1nc2cc(C)c(C)cc2[nH]c1=O	> 100	> 100	> 100	> 100	> 100	> 100		> 100	> 100
